Reference: ChEMBL document CHEMBL4359891, “Synthesis of polyfluoroalkyl sp2-iminosugar glycolipids and evaluation of their immunomodulatory properties towards anti-tumor, anti-leishmanial and anti-inflammatory therapies” (Eur J Med Chem, 2019)
The source made the active and inactive calls. The rule behind the calls is not given here.

Assays:
HeLa = experiment: Antiproliferative activity against human HeLa cells assessed as growth inhibition after 48 hrs by SRB assay; type: functional
T47D = experiment: Antiproliferative activity against human T47D cells assessed as growth inhibition after 48 hrs by SRB assay; type: functional
THP-1 = experiment: Cytotoxicity against human THP1 cells assessed as reduction in cell viability after 72 hrs by MTT assay; type: cell-based; settings: THP-1, 72 h
HBL-100 = experiment: Antiproliferative activity against human HBL100 cells assessed as growth inhibition after 48 hrs by SRB assay; type: functional; settings: HBL-100, 48 h
A549 = experiment: Antiproliferative activity against human A549 cells assessed as growth inhibition after 48 hrs by SRB assay; type: functional; settings: A549, 48 h
Leishmania donovani = experiment: Antileishmanial activity against intracellular amastigote stage of Leishmania donovani fused with LUC infected in human THP1 cells assessed as parasite growth inhibition after 72 hrs post infection by luciferase based assay; type: functional, organism-based; settings: THP-1, 72 h
SW1573 = experiment: Antiproliferative activity against human SW1573 cells assessed as growth inhibition after 48 hrs by SRB assay; type: functional; settings: SW1573, 48 h
[1] = Critical aggregation concentration of compound by spectrofluorophotometric method; type: physicochemical
WiDr = experiment: Antiproliferative activity against human WiDr cells assessed as growth inhibition after 48 hrs by SRB assay; type: functional
[2] = biological target: Mitogen-activated protein kinase 14 (Mus musculus) (UniProt P47811); experiment: Activation of p38 alpha MAPK in mouse BV2 cells assessed as p38 phosphorylation at 1 uM incubated for 15 to 60 mins by Western blot analysis; type: cell-based
[3] = biological target: Mitogen-activated protein kinase 14 (Mus musculus) (UniProt P47811); experiment: Activation of p38 alpha MAPK in mouse BV2 cells assessed as p38 phosphorylation at 10 uM by Western blot analysis; type: cell-based; settings: TDE = time-dependent effect
BV-2 [4] = experiment: Antiinflammatory activity against mouse BV2 cells assessed as reduction in LPS-induced iNOS protein expression at 10 uM by Western blot analysis; type: functional, cell-based
BV-2 [5] = experiment: Cytotoxicity against mouse BV2 cells assessed as reduction in cell viability up to 10 uM by crystal violet staining based assay
BV-2 [6] = experiment: Antiinflammatory activity against mouse BV2 cells assessed as reduction in LPS-induced nitrite level at 1 to 10 uM by Griess assay; type: functional, cell-based
BV-2 [7] = experiment: Antiinflammatory activity against mouse BV2 cells assessed as reduction in LPS-induced iNOS protein expression at 1 uM by Western blot analysis; type: functional, cell-based
[8] = biological target: Mitogen-activated protein kinase 14 (Mus musculus) (UniProt P47811); experiment: Activation of p38 alpha MAPK in mouse BV2 cells assessed as p38 phosphorylation at 1 uM by Western blot analysis; type: cell-based; settings: TDE = time-dependent effect

Chain of Mitogen-activated protein kinase 14 (Mus musculus) (P47811 whole entry): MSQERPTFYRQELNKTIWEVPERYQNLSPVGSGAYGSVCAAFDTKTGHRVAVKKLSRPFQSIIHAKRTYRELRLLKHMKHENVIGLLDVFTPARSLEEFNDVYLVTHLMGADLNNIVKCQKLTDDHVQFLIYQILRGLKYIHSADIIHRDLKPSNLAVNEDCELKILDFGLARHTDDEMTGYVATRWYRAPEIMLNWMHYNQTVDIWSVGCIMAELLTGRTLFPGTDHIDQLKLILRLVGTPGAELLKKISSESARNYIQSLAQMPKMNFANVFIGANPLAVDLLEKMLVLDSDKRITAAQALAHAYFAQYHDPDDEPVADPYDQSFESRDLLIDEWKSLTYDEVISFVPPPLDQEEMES

SMILES | GI50 (HeLa) [µM] | GI50 (T47D) [µM] | GI50 (A549) [µM] | GI50 (SW1573) [µM] | CAC [1] [µM] | Activity [2] | Activity [3] | Activity [8] | EC50 (THP-1) [µM] | GI50 (HBL-100) [µM] | EC50 (Leishmania donovani) [µM] | GI50 (WiDr) [µM] | Activity (BV-2 [4]) | Activity (BV-2 [5]) | Activity (BV-2 [6]) | Activity (BV-2 [7])
O=C(CCC(F)(F)C(F)(F)C(F)(F)C(F)(F)F)NCCCCCCCCCN[C@@H]1[C@H](O)[C@@H](O)[C@H](O)[C@H]2COC(=O)N21 | > 100 | > 100 | > 100 | > 100 | 77.9 | – | – | – | > 200 | > 100 | > 40 | > 100 | – | – | – | –
CCCCCCCCCCCCS(=O)(=O)[C@@H]1[C@H](O)[C@@H](O)[C@@H](O)[C@H]2COC(=O)N21 | – | – | – | – | – | Active | – | – | – | – | – | – | – | – | – | –
CCCCCCCCCCCCCCCCOP(=O)([O-])OCC[N+](C)(C)C [MILTEFOSINE] | – | – | – | – | – | – | – | – | – | – | 0.44 | – | – | – | – | –
O=C(CCC(F)(F)C(F)(F)C(F)(F)C(F)(F)F)NCCCCCCCCCN[C@@H]1[C@H](O)[C@@H](O)[C@@H](O)[C@H]2COC(=O)N21 | 45 | 96 | 76 | > 100 | 118 | – | – | – | > 200 | > 100 | > 40 | > 100 | – | – | – | –

The next lines start with results.

GI50 (HeLa) [µM] | GI50 (T47D) [µM] | GI50 (A549) [µM] | GI50 (SW1573) [µM] | CAC [1] [µM] | Activity [2] | Activity [3] | Activity [8] | SMILES | EC50 (THP-1) [µM] | GI50 (HBL-100) [µM] | EC50 (Leishmania donovani) [µM] | GI50 (WiDr) [µM] | Activity (BV-2 [4]) | Activity (BV-2 [5]) | Activity (BV-2 [6]) | Activity (BV-2 [7])
> 100 | > 100 | > 100 | > 100 | 6.9 | – | – | – | O=C(CCC(F)(F)C(F)(F)C(F)(F)C(F)(F)C(F)(F)C(F)(F)C(F)(F)C(F)(F)F)NCCCCCCCCCN[C@@H]1[C@H](O)[C@@H](O)[C@H](O)[C@H]2COC(=O)N21 | 152 | > 100 | 30 | > 100 | – | – | – | –
12 | 11 | 12 | 14 | 22 | – | Tde | – | O=C(CCC(F)(F)C(F)(F)C(F)(F)C(F)(F)C(F)(F)C(F)(F)F)NCCCCCCCCCN[C@@H]1[C@H](O)[C@@H](O)[C@H](O)[C@H]2COC(=O)N21 | 65 | 16 | 24.6 | 13 | Active | Non-Toxic | Active | –
10 | 15 | 17 | 14 | 14 | – | – | Tde | O=C(CCC(F)(F)C(F)(F)C(F)(F)C(F)(F)C(F)(F)C(F)(F)F)NCCCCCCCCCN[C@@H]1[C@H](O)[C@@H](O)[C@@H](O)[C@H]2COC(=O)N21 | 56.6 | 16 | 27.2 | 17 | – | Non-Toxic | Active | Active
> 100 | > 100 | > 100 | > 100 | 13 | – | – | – | O=C(CCC(F)(F)C(F)(F)C(F)(F)C(F)(F)C(F)(F)C(F)(F)C(F)(F)C(F)(F)F)NCCCCCCCCCN[C@@H]1[C@H](O)[C@@H](O)[C@@H](O)[C@H]2COC(=O)N21 | 124 | > 100 | 22.9 | > 100 | – | – | – | –
